Results on 1 compound are retold here after BindingDB's records for doi:10.7270/Q2HM56V2 (The Scripps Research Institute Molecular Screening Center, 2008).

The term EC50 denotes the concentration giving half of the maximal effect. A higher EC50 goes with weaker potency.

The target in this assay is T1, Signal transducer and activator of transcription 1-alpha/beta (Homo sapiens, UniProt P42224).
T1 sequence (P42224 whole entry): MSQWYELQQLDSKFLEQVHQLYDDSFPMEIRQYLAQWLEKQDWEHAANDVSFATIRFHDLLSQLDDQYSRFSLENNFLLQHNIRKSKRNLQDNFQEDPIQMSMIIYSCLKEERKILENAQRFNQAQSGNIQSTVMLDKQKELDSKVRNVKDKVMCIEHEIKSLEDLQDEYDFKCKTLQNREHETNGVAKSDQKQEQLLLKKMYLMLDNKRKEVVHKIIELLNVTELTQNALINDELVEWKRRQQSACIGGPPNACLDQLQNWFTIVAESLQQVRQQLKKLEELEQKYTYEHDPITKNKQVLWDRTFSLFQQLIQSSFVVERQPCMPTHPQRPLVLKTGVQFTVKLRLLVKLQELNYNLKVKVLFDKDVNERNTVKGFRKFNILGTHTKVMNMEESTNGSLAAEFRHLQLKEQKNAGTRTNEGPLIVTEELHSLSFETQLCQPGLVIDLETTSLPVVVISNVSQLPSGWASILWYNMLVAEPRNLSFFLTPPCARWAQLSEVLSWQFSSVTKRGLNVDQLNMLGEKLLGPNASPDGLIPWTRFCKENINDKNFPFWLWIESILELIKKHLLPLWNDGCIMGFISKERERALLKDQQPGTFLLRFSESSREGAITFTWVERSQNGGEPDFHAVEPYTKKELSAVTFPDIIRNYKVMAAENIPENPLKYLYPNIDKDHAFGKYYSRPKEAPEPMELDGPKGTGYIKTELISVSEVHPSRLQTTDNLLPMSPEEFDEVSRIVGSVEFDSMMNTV
Kind of assay: PubChem AID 1406.

The structures appear in SMILES notation. Some results are limits rather than exact numbers.

`Cc1[nH]n(-c2ccccc2)c(=O)c1C=C1C(=O)NC(=O)NC1=O` gave a concentration giving a half-maximal response (EC50) greater than 55.7 µM.
